Data published in publication PMC10253456, “Investigating the Contribution of Major Drug-Metabolising Enzymes to Possum-Specific Fertility Control” (International Journal of Molecular Sciences, 2023).
Where a name gives a salt, the structure may show the parent alone. Read-outs that look alike come from different tables or passages of the source.

Tests used:
[1] = test system: CYP3A; test: CYP3A catalytic activity (erythromycin N-demethylation) in possum liver microsomes; settings: for Percent control catalytic activity at estimated IC50 / Percent control catalytic activity at estimated 2-fold IC50: possum liver microsomes, initial screen n=1; for Percent control catalytic activity at estimated IC50: compounds without reported IC50 at 1 µM; for Percent control catalytic activity at estimated 2-fold IC50: compounds without reported IC50 at 5 µM; for % of control (catalytic activity at 2-fold IC50) / Catalytic activity at 2-fold IC50 / % of control (catalytic activity at IC50): possum; for % of control (catalytic activity at 2-fold IC50) / Catalytic activity at 2-fold IC50: compound at estimated 2-fold IC50 (5 µM where none reported); for % of control (catalytic activity at IC50): compound at estimated IC50 (1 µM where none reported)
Experimental: (§1) Possums were collected from the Otago Peninsula (Dunedin) and the Okuti Valley, Banks Peninsula (Christchurch) in New Zealand in collaboration with the Otago Peninsula Biodiversity Group and Manaaki Whenua-Landcare Research, respectively. […] Possums were caged and humanely killed by a blow to the head, and the livers were harvested, snap-frozen in liquid nitrogen, and stored in a freezer at −80 °C until the preparation of microsomal fractions. […] Mice were euthanised by carbon dioxide inhalation and the livers were removed and microsomes prepared. […] The livers from avian species (mallards and a swan) were kindly donated by a local bird hunting group based in Dunedin, New Zealand. The livers from avian species were treated similarly to those mentioned above for the possum samples.
(§2) Microsomal preparation was carried out as previously described [76]. […] All procedures were performed at 0–4 °C. The liver samples were minced and homogenised in Buffer A (0.1 M Tris, 0.1 M potassium chloride, 1 mM EDTA, and 20 μM butylated hydroxytoluene, at pH = 7.4) using the Teflon-glass homogeniser (5–6 vertical passes). The samples were centrifuged at 10,000× g for 20 min. The supernatant was then transferred into another set of centrifuge tubes and spun at 100,000× g for 60 min. The pellet was resuspended in Buffer B (0.1 M potassium pyrophosphate, 1 mM EDTA, and 20 μM butylated hydroxytoluene, at pH = 7.4), homogenised, and recentrifuged at 100,000× g for 60 min. Finally, the pellet was homogenised in 1–2 mL of Buffer C (10 mM Tris-HCl, 1 mM EDTA, and 4% glycerol (v/v)), and stored at −80 °C until use. The protein concentration of the microsomes was determined using the bicinchoninic acid (BCA) method [77].
(§3) CYP3A catalytic activity was determined using the erythromycin N-demethylation activity assay, as described [78]. The reaction mixture (final volume of 1 mL and final protein concentration of 1 mg) contained 500 µL of microsomes in 0.1 M phosphate buffer (pH 7.4) and 400 µL of erythromycin buffer (0.45 mM), and 50 µL of the test compound was pre-warmed at 37 °C for 2 min. The reaction was initiated with 50 µL of 2.5 mM nicotinamide adenine dinucleotide phosphate (NADP^+) and incubated for 30 min at 37 °C. […] The tubes were vortexed and left for 5 min (at room temperature), and then 330 µL of saturated barium hydroxide was added. The tubes were further vortexed and left for 5 min (at room temperature). The tubes were then centrifuged at 1800× g for 10 min. To 830 µL of the supernatant, 330 µL of Nash reagent (30% (w/v) ammonium acetate, 0.4% (v/v) acetylacetone) was added and further incubated for 30 min at 60 °C. The blank tube contained 330 µL of Nash reagent and 830 µL of Milli-Q water. […] The CYP3A activities were determined in nmol/mg/min using standard curve data. Results presented are the mean ± SEM of 3 independent experiments performed in duplicate unless otherwise stated.

[2] = test system: CYP3A; test: CYP3A catalytic activity (erythromycin N-demethylation) in mouse liver microsomes; settings: for Percent control catalytic activity at estimated IC50 / Percent control catalytic activity at estimated 2-fold IC50: mouse liver microsomes, initial screen n=1; for Percent control catalytic activity at estimated IC50: compounds without reported IC50 at 1 µM; for Percent control catalytic activity at estimated 2-fold IC50: compounds without reported IC50 at 5 µM; for % of control (catalytic activity at 2-fold IC50) / Catalytic activity at 2-fold IC50 / % of control (catalytic activity at IC50): mouse; for % of control (catalytic activity at 2-fold IC50) / Catalytic activity at 2-fold IC50: compound at estimated 2-fold IC50 (5 µM where none reported); for % of control (catalytic activity at IC50): compound at estimated IC50 (1 µM where none reported)
Experimental: as §1, §2, §3

[3] = test system: CYP3A; settings: avian
Experimental: as §1, §2, §3

[4] = compound at estimated 2-fold IC50 (5 µM where none reported)

SMILES | Percent control catalytic activity at estimated IC50 [1] [percent control] | Percent control catalytic activity at estimated 2-fold IC50 [1] [percent control] | Percent control catalytic activity at estimated IC50 [2] [percent control] | Percent control catalytic activity at estimated 2-fold IC50 [2] [percent control] | other results
CC[C@@H]([C@H](C)O)n1ncn(-c2ccc(N3CCN(c4ccc(OC[C@@H]5CO[C@@](Cn6cncn6)(c6ccc(F)cc6F)C5)cc4)CC3)cc2)c1=O [Posaconazole] | 93 | 92 | 101 | 74 | 
O=C(O)/C=C/c1ccc(Cn2ccnc2)cc1 [Ozagrel] | 97 | 109 | 93 | 92 | 
CC(C)c1cc(C(C)C)c(CC(=O)NS(=O)(=O)Oc2c(C(C)C)cccc2C(C)C)c(C(C)C)c1 [Avasimibe] |  |  | 91 | 92 | 
CC(C)(C)C(O)/C=C/c1ccc2c(c1)OCO2 (stereo not shown) [Stiripentol] | 109 | 105 | 119 | 102 | 
COc1cc2c(=O)c3c(O)c([C@@H]4O[C@H](CO[C@@H]5OC[C@](O)(CO)[C@H]5O)[C@@H](O)[C@H](O)[C@H]4O)c(O)cc3oc2cc1O [Polygalaxanthone III] | 102 | 108 | 92 | 94 | 
O=C1C[C@@H](c2ccc(O)cc2)Oc2cc(O)cc(O)c21 [Naringenin] | 84 |  | 71 |  | % of control (catalytic activity at 2-fold IC50) [1]: 175 % of control; Catalytic activity at 2-fold IC50 [1]: 0.56 ± 0.02 nmol/mg/min; % of control (catalytic activity at 2-fold IC50) [2]: 240 % of control; Catalytic activity at 2-fold IC50 [2]: 1.09 ± 0.04 nmol/mg/min
O=C(O)c1ccc(-n2nc(-c3ccccc3O)nc2-c2ccccc2O)cc1 [Deferasirox] | 93 |  | 87 |  | 
C/C1=C/CC[C@H](C)C(=O)C[C@@H](C(C)C)C(=O)C1 [Curdione] | 92 | 103 | 143 | 134 | % of control (catalytic activity at 2-fold IC50) [1]: 99 % of control; Catalytic activity at 2-fold IC50 [1]: 0.37 ± 0.03 nmol/mg/min; % of control (catalytic activity at IC50) [1]: 91 % of control; % of control (catalytic activity at 2-fold IC50) [2]: 94 % of control; Catalytic activity at 2-fold IC50 [2]: 0.38 ± 0.05 nmol/mg/min; % of control (catalytic activity at IC50) [2]: 114 % of control; % of control (catalytic activity at 2-fold IC50) [3, 4]: 99 % of control; Catalytic activity at 2-fold IC50 [3, 4]: 0.41 ± 0.04 nmol/mg/min; % of control (catalytic activity at IC50) ([3]; compound at estimated IC50 (1 µM where none reported)): 97 % of control
Cl.O=C(O)/C=C/c1ccc(Cn2ccnc2)cc1 [Ozagrel HCl] | 121 | 95 | 92 | 85 | 
O=C1c2ccc(O)cc2C(=O)c2ccc(O)cc21 [2,6-Dihydroxyanthraquinone] | 97 | 102 | 106 | 128 | 
CCc1ccc(CCOc2ccc(CC3SC(=O)NC3=O)cc2)nc1 (stereo not shown) [Pioglitazone HCl] | 99 | 87 | 98 | 100 | 
Cc1ccc(-c2c(-c3nn(C)c4ncnc(N5CC[C@H](N6CCCCC6)C5)c34)cnn2C)cc1 [PF-4981517] | 98 | 108 | 101 | 110 | 
COc1c(OC)c2occc2c2oc(=O)ccc12 [Pimpinellin] | 133 |  | 171 |  | 
C[C@@H]1O[C@@H](O[C@H]2[C@H](Oc3cc(O)c(C(=O)CCc4ccc(O)cc4)c(O)c3)O[C@H](CO)[C@@H](O)[C@@H]2O)[C@H](O)[C@H](O)[C@H]1O [Naringin Dihydrochalcone] | 111 | 87 | 92 | 96 | % of control (catalytic activity at 2-fold IC50) [1]: 92 % of control; Catalytic activity at 2-fold IC50 [1]: 0.33 ± 0.02 nmol/mg/min; % of control (catalytic activity at IC50) [1]: 106 % of control; % of control (catalytic activity at 2-fold IC50) [2]: 102 % of control; Catalytic activity at 2-fold IC50 [2]: 0.54 ± 0.07 nmol/mg/min; % of control (catalytic activity at IC50) [2]: 97 % of control
O=[N+]([O-])c1cn(C(c2ccccc2)(c2ccccc2)c2ccccc2)cn1 [CDD3505] | 129 | 145 | 88 | 89 | 
CC(=O)O[C@H]1CC[C@@]2(C)C(=CC[C@@H]3[C@@H]2CC[C@]2(C)C(c4cccnc4)=CC[C@@H]32)C1 [Abiraterone Acetate] | 128 | 110 | 85 | 89 | 
O=c1cc(-c2ccc(O)cc2)oc2cc(O)cc(O)c12 [Apigenin] | 94 | 121 | 116 | 106 | 
O=c1c(O)c(-c2ccccc2)oc2cc(O)cc(O)c12 [Galangin] | 115 | 103 | 131 | 123 | 
O=C([O-])C(O)Cc1ccc(O)c(O)c1.[Na+] (stereo not shown) [Sodium Danshensu] | 116 | 118 | 98 | 107 | 
CC(C)(C)C(O)/C(=C\c1ccc(Cl)cc1)n1cncn1 (stereo not shown) [Uniconazole] | 82 | 84 | 67 | 40 | 
C=CCSCC=C [Diallyl sulfide] | 103 | 96 | 72 | 84 | 
CC12CC3CC(C)(C1)CC(N)(C3)C2 [Memantine HCl] | 117 | 109 | 104 | 98 | 
COc1cc2c(cc1OC)[C@@H](Cc1ccc(Oc3cc(C[C@@H]4c5cc(OC)c(OC)cc5CCN4C)ccc3O)cc1)N(C)CC2 [Dauricine] | 108 | 117 | 113 | 112 | 
c1ccc2[nH]c(-c3cscn3)nc2c1 [Thiabendazole] | 94 | 92 | 85 | 95 | 
O=C(O)[C@H](O)Cc1ccc(O)c(O)c1 [Danshensu] | 113 |  | 97 |  | 
